Measured values taken from patent US20230332232A1, “COMPOSITIONS AND METHODS FOR DIAGNOSING AND TREATING A DYSTONIA” (Duke University, priority 2020, published 2023).

Test system: DYT1 knockin (Tor1a^delGAG/+) murine embryonic fibroblasts (MEFs)
Assay: Untargeted LC/MS/MS proteomics of EVs from DYT1 MEFs exposed 24 hours to drug, compared with untreated DYT1 (Het) MEFs
Assay type: cell-based, mouse
Protocol: Methods for isolation and purification of exosomes and extracellular vesicles (EV) were extensively reviewed. Experiments were performed to arrive at a robust and reproducible protocol. The protocol used herein is that set forth in Théry et al, 2006, which is incorporated by reference for it teaching of this protocol. This protocol involves depleting serum-derived EVs from cell culture media by overnight ultracentrifugation and exchanging media for 1% FBS EV-depleted media. Media is then collected from cells following a 24-hour conditioning period and EVs are isolated by 18-hour ultracentrifugation at 100,000 g (FIG. 1A).
EVs were isolated from media of cultured murine embryonic fibroblasts (MEFs) prepared in-house according to protocols described by Xu 2005 from DYT1 knockin mice (Tor1a^delGAG/+) (Goodchild R E, et al. (2005) Neuron. 48:923-932) and littermate wild-type (WT) controls. The cultured MEFs from the DYT1 mice were exposed for 24 hours to Ritonavir (RTV) while the MEFs from WT mice were exposed to vehicle, ISRIB, or Salubrinal (SAL). The EVs isolated from these WT cells and DYT1 were characterized by untargeted proteomics and RNA-seq to identify differentially expressed proteins and RNAs as candidate biomarkers. Experimenter and Proteomics core staff were blinded to genotype of cell cultures throughout preparation and analysis phases.
Samples were first normalized to 20 μg and spiked with undigested casein at a total of 40 fmol/μg, 80 fmol/μg, or 160 fmol/μg, then reduced with 10 mM dithiolthreitol for 30 minute at 80° C. and alkylated with 20 mM iodoacetamide for 30 minutes at room temperature. Next, the samples were supplemented with a final concentration of 1.2% phosphoric acid and 741 μL of S-Trap (Protifi) binding buffer (90% MeOH/100 mM […]). Proteins were trapped on the S-Trap, digested using 20 ng/μL sequencing grade trypsin (Promega) for 1 hour at 47° C., and eluted using 50 mM TEAB, followed by 0.2% FA, and lastly using 50% CAN/0.2% FA. All samples were then lyophilized to dryness and resuspended in 40 μL 1% TFA/2% acetonitrile containing 12.5 fmol/μL yeast alcohol dehydrogenase (ADH_YEAST). A QC Pool was created from 3 uL of each sample. All QC Pools were run periodically throughout the acquisition period.
Quantitative LC/MS/MS was performed on 2 μL of each sample, using a nanoAcquity UPLC system (Waters Corp) coupled to a Thermo Orbitrap Fusion Lumos high resolution accurate mass tandem mass spectrometer (Thermo) via a nanoelectrospray ionization source. Briefly, the sample was first trapped on a Symmetry C18 20 mm×180 μm trapping column (5 μL/min at 99.9/0.1 v/v water/acetonitrile), after which the analytical separation was performed using a 1.8 μm Acquity HSS T3 C18 75 μm×250 mm column (Waters Corp.) with a 90 minute linear gradient of 5% to 30% acetonitrile with 0.1% formic acid at a flow rate of 400 nanoliters/minute (nL/min) with a column temperature of 55° C. Data collection on the Fusion Lumos mass spectrometer was performed in a data-dependent acquisition (DDA) mode of acquisition with a r=120,000 (@ m/z 200) full MS scan from m/z 375-1500 with a target AGC value of 2e5 ions. MS/MS scans were acquired at Rapid scan rate (Ion Trap) with an AGC target of 5e3 ions and a max injection time of 100 ms. The total cycle time for MS and MS/MS scans was 2 seconds. A 20 second dynamic exclusion was employed to increase depth of coverage. The total analysis cycle time for each sample injection was approximately 2 hours.

SMILES: CC(C)c1nc(CN(C)C(=O)N[C@H](C(=O)N[C@@H](Cc2ccccc2)C[C@H](O)[C@H](Cc2ccccc2)NC(=O)OCc2cncs2)C(C)C)cs1 [RTV, Ritonavir]
- direction of modulated EV protein expression (DYT1 cells, 363 proteins of the DYT1 Genotype Dependent Differences subset): modulated expression in a therapeutic direction
- Abs Z Score Sum (Geno + RTV) (EV protein A2AVA0 Sushi, von Willebrand factor type A, EGF and pentraxin domain-containing protein 1): 2.64
- Abs Z Score Sum (Geno + RTV) (EV protein Akr1b1 (P45376)): 8.44
- Abs Z Score Sum (Geno + RTV) (EV protein Aldh2 (P47738)): 25.29
- RTV Direction Opposite dE? (EV protein Aldh2 (P47738)): yes
- Abs Z Score Sum (Geno + RTV) (EV protein C1qtnf3 (Q9..)): 6.95
- Abs Z Score Sum (Geno + RTV) (EV protein Cnn3 (Q9DAW9)): 13.28
- RTV Direction Opposite dE? (EV protein Cnn3 (Q9DAW9)): yes
- Abs Z Score Sum (Geno + RTV) (EV protein Cnot1 (Q6ZQ08)): 12.30
- RTV Direction Opposite dE? (EV protein Cnot1 (Q6ZQ08)): yes
- Abs Z Score Sum (Geno + RTV) (EV protein Col5A1 Q88207): 5.55
- Abs Z Score Sum (Geno + RTV) (EV protein Coph2 Q55029): 9.40
- Abs Z Score Sum (Geno + RTV) (EV protein Cryab (P23927)): 5.18
- RTV Direction Opposite dE? (EV protein Cryab (P23927)): yes
- Abs Z Score Sum (Geno + RTV) (EV protein Cxadr (P97792)): 16.73
- RTV Direction Opposite dE? (EV protein Cxadr (P97792)): yes
- RTV Direction Opposite dE? (EV protein D3YXG0): yes
- RTV Direction Opposite dE? (EV protein Dars (Q922B2)): yes
- RTV Direction Opposite dE? (EV protein Dctn2 (Q99KJ8)): yes
- Abs Z Score Sum (Geno + RTV) (EV protein Ddx3x (Q62167)): 5.09
- Abs Z Score Sum (Geno + RTV) (EV protein Ddx5 (Q61656)): 8.05
- Abs Z Score Sum (Geno + RTV) (EV protein Ddx39b (Q9Z1N5)): 16.28
- RTV Direction Opposite dE? (EV protein Ddx39b (Q9Z1N5)): yes
- Abs Z Score Sum (Geno + RTV) (EV protein Dhx9 (Q70133)): 9.00
- Abs Z Score Sum (Geno + RTV) (EV protein Dhx15 (Q35286)): 7.27
- Abs Z Score Sum (Geno + RTV) (EV protein Efemp1 Q8BPB5): 8.34
- RTV Direction Opposite dE? (EV protein Esyt1 (Q3U7R1)): yes
- Abs Z Score Sum (Geno + RTV) (EV protein Exoc4 (Q35382)): 14.59
- RTV Direction Opposite dE? (EV protein Exoc4 (Q35382)): yes
- Abs Z Score Sum (Geno + RTV) (EV protein Extended synaptotagmin-1 (Q3..)): 4.61
- Abs Z Score Sum (Geno + RTV) (EV protein Fth1 P09528): 12.58
- Abs Z Score Sum (Geno + RTV) (EV protein Fus (P56959)): 14.88
- RTV Direction Opposite dE? (EV protein Fus (P56959)): yes
- Abs Z Score Sum (Geno + RTV) (EV protein Gsto1 (Q09131)): 8.09
- RTV Direction Opposite dE? (EV protein Gsto1 (Q09131)): yes
- Abs Z Score Sum (Geno + RTV) (EV protein Hmen1 D3YXG0): 11.51
- RTV Direction Opposite dE? (EV protein Hnrnpf (Q9Z2X1)): yes
- RTV Direction Opposite dE? (EV protein Hnrnph1 (Q35737)): yes
- Abs Z Score Sum (Geno + RTV) (EV protein Hnrnpl Q8R081): 9.12
- Abs Z Score Sum (Geno + RTV) (EV protein Idh2 (P54071)): 26.73
- Abs Z Score Sum (Geno + RTV) (EV protein Igf1r Q60751): 4.86
- RTV Direction Opposite dE? (EV protein Impa1 (Q55023)): yes
- Abs Z Score Sum (Geno + RTV) (EV protein Ipo7 (Q9EPL8)): 5.25
- RTV Direction Opposite dE? (EV protein Ipo7 (Q9EPL8)): yes
- Abs Z Score Sum (Geno + RTV) (EV protein Ipo11 (Q8K2V6)): 13.53
- RTV Direction Opposite dE? (EV protein Ipo11 (Q8K2V6)): yes
- Abs Z Score Sum (Geno + RTV) (EV protein Itgb3 (Q54890)): 4.87
- RTV Direction Opposite dE? (EV protein Itgb3 (Q54890)): yes
- Abs Z Score Sum (Geno + RTV) (EV protein Itm2b Q89051): 17.16
- Abs Z Score Sum (Geno + RTV) (EV protein Itpa (Q9D892)): 23.68
- RTV Direction Opposite dE? (EV protein Itpa (Q9D892)): yes
- Abs Z Score Sum (Geno + RTV) (EV protein Kpna4 (Q35343)): 14.28
- RTV Direction Opposite dE? (EV protein Kpna4 (Q35343)): yes
- Abs Z Score Sum (Geno + RTV) (EV protein Lipg (Q9WVG5)): 11.27
- Abs Z Score Sum (Geno + RTV) (EV protein Mdk (P12025)): 7.88
- RTV Direction Opposite dE? (EV protein Mdk (P12025)): yes
- Abs Z Score Sum (Geno + RTV) (EV protein Mem2 P97310): 7.66
- Abs Z Score Sum (Geno + RTV) (EV protein Mtap (Q9CQ65)): 8.12
- RTV Direction Opposite dE? (EV protein Myo18a): yes
- Abs Z Score Sum (Geno + RTV) (EV protein Myo18a (Q9JM..)): 7.78
- Abs Z Score Sum (Geno + RTV) (EV protein Nap114 Q78ZA7): 50.77
- Abs Z Score Sum (Geno + RTV) (EV protein Nrbp1 (Q99..)): 9.54
- RTV Direction Opposite dE? (EV protein Nrbp1 (Q99J45)): yes
- Abs Z Score Sum (Geno + RTV) (EV protein Otub1 (Q7TQ..)): 11.30
- RTV Direction Opposite dE? (EV protein P09528, Ferritin heavy chain): yes
- RTV Direction Opposite dE? (EV protein P27612, Phospholipase A-2-activating protein): yes
- Abs Z Score Sum (Geno + RTV) (EV protein P48678 Prelamin-A C): 7.44
- RTV Direction Opposite dE? (EV protein P61089, Ubiquitin-conjugating enzyme): yes
- Abs Z Score Sum (Geno + RTV) (EV protein Pdia4 (P08003)): 5.92
- RTV Direction Opposite dE? (EV protein Pdia4 (P08003)): yes
- Abs Z Score Sum (Geno + RTV) (EV protein Penk (P22005)): 4.31
- RTV Direction Opposite dE? (EV protein Penk (P22005)): yes
- Abs Z Score Sum (Geno + RTV) (EV protein Plaa P27612): 12.45
- Abs Z Score Sum (Geno + RTV) (EV protein Pld3 (Q35405)): 7.47
- RTV Direction Opposite dE? (EV protein Pld3 (Q35405)): yes
- Abs Z Score Sum (Geno + RTV) (EV protein Prep Q9QUR6): 8.56
- Abs Z Score Sum (Geno + RTV) (EV protein Prpf8 (Q99PV0)): 11.34
- Abs Z Score Sum (Geno + RTV) (EV protein Psmd1 (Q3TXS7)): 7.84
- Abs Z Score Sum (Geno + RTV) (EV protein Pura (P42669)): 6.04
- RTV Direction Opposite dE? (EV protein Pura (P42669)): yes
- RTV Direction Opposite dE? (EV protein Q6X893, Choline transporter-like protein 1): yes
- RTV Direction Opposite dE? (EV protein Q8BL97, Serine arginine-rich splicing factor 7): yes
- RTV Direction Opposite dE? (EV protein Q8C878, NEDD8-activating enzyme E1 catalytic subunit): yes
- Abs Z Score Sum (Geno + RTV) (EV protein Q8C878 NEDD8-activating enzyme .. subunit): 14.97
- Abs Z Score Sum (Geno + RTV) (EV protein Q8CG19 Latent-transforming GF β-binding protein 1): 6.03
- Abs Z Score Sum (Geno + RTV) (EV protein Q9D1M4 (Eukaryotic translation .. epsilon-1)): 20.67
- RTV Direction Opposite dE? (EV protein Q9D1M4, Eukaryotic translation EF1 epsilon-1): yes
- RTV Direction Opposite dE? (EV protein Q9FS30, Complement C1q tumor necrosis factor-related protein 3): yes
- RTV Direction Opposite dE? (EV protein Q9Z1Z0, General vesicular transport factor p115): yes
- Abs Z Score Sum (Geno + RTV) (EV protein Q9Z2X1 Heterogeneous nuclear ribonucleoprotein E): 12.02
- RTV Direction Opposite dE? (EV protein Q78ZA7, Nucelosome assembly protein 1-like 4): yes
- Abs Z Score Sum (Geno + RTV) (EV protein Q99KJ8 Dynactin subunit 2): 13.94
- Abs Z Score Sum (Geno + RTV) (EV protein Q922B2 Aspartate--tRNA ligase): 12.17
- Abs Z Score Sum (Geno + RTV) (EV protein Q01405 Protein transport protein .. 23A): 13.20
- Abs Z Score Sum (Geno + RTV) (EV protein Q35737 Heterogeneous nuclear ribonucleoprotein H): 8.31
- Abs Z Score Sum (Geno + RTV) (EV protein Q55023 Inositol monophosphatase 1): 14.51
- RTV Direction Opposite dE? (EV protein Q60751, Insulin-like growth factor 1 receptor): yes
- Abs Z Score Sum (Geno + RTV) (EV protein Q60972 Histone-binding protein RBBP4): 18.10
- RTV Direction Opposite dE? (EV protein Q89051, Integral membrane protein 2B): yes
- Abs Z Score Sum (Geno + RTV) (EV protein Qars (Q8BML9)): 13.17
- RTV Direction Opposite dE? (EV protein Qars (Q8BML9)): yes
- Abs Z Score Sum (Geno + RTV) (EV protein Rab6a (P35279)): 6.80
- RTV Direction Opposite dE? (EV protein Rab6a (P35279)): yes
- RTV Direction Opposite dE? (EV protein Rbbp4 (Q60972)): yes
- Abs Z Score Sum (Geno + RTV) (EV protein Rpl22 (P67984)): 7.66
- RTV Direction Opposite dE? (EV protein Rpl22 (P67984)): yes
- Abs Z Score Sum (Geno + RTV) (EV protein S100a11 (P50543)): 8.18
- RTV Direction Opposite dE? (EV protein S100a11 (P50543)): yes
- Abs Z Score Sum (Geno + RTV) (EV protein Scarb2 (Q35114)): 3.91
- RTV Direction Opposite dE? (EV protein Scarb2 (Q35114)): yes
- RTV Direction Opposite dE? (EV protein Sec23a (Q01405)): yes
- Abs Z Score Sum (Geno + RTV) (EV protein Sec31a (Q3..)): 8.41
- Abs Z Score Sum (Geno + RTV) (EV protein Shrnt2 Q9CZN7): 11.93
- Abs Z Score Sum (Geno + RTV) (EV protein Slc44a1 Q6X893): 3.67
- Abs Z Score Sum (Geno + RTV) (EV protein Spp1 (P10923)): 11.35
